Measured values published in ChEMBL document CHEMBL5727406, “Positive allosteric modulators of the GLP-1 receptor” (2019).

Biological target: Glucagon-like peptide 1 receptor (Homo sapiens, UniProt P43220)
Test: GLP-1 Assay with EX-4 Synthetic Agonist: To assess the effects of test compounds on GLP-1 or glucagon potency and efficacy, a high-throughput calcium mobilization assay was used essentially as previously described (Morris L C, Days E L, Turney M, Mi D, Lindsley C W, Weaver C D, Niswender K D, A Duplexed High-Throughput Screen to Identify Allosteric Modulators of the Glucagon-Like Peptide 1 and Glucagon Receptors. J. Biomol. Screen. 2014 Feb. 13, 19(6):847-858). Briefly, human GLP-1R or Glucagon Receptor 9-3-H cells over-expressing a promiscuous G-protein (Millipore, Billerica, Mass.) were plated at 15,000 cells/well in black-walled 384-well plates (Greiner Bio-one, Monroe, N.C.) in Dulbecco's Modified Eagles Medium (DMEM) with 10% FCS, 4.0 mM L-glutamine, 1× non-essential amino acids (NEAAs), and 10.0 mM HEPES without antibiotics. After overnight attachment, cells were washed twice with assay buffer (HBSS supplemented with 20 mM HEPES and 1.0 mM probenecid) using an EL×405CW cell washer (Bio-Tek, Winooski, Vt.) and then loaded with the calcium sensitive dye fluo-4 AM (Invitrogen, Grand Island, N.Y.) at a final concentration of 2.0 μM in assay buffer. After a 45-minute incubation at room temperature, the dye was removed by washing, leaving 20 μL of assay buffer. […]

Glucagon-like peptide 1 receptor, sequence (P43220 whole entry): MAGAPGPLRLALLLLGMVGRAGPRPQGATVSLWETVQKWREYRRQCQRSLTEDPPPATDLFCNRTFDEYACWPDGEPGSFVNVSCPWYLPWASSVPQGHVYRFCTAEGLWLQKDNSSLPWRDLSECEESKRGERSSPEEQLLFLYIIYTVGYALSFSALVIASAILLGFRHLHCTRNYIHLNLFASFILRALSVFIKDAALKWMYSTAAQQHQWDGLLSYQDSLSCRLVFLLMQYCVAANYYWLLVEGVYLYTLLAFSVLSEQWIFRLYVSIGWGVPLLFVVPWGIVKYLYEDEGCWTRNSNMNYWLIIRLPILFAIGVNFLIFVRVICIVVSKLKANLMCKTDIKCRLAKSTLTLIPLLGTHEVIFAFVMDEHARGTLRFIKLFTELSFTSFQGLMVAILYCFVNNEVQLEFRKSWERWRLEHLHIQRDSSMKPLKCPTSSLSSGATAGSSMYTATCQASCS

EC50: > 30 µM
Structure (SMILES): Cc1c2ccccc2n2c(C(=O)NC[C@H]3CCCN3C(C)C)cn(C3CCCC3)c(=O)c12
